According to patent publication US9884812B2, “Use of DDX3X inhibitors for the treatment of pneumovirus infections” (priority 2014, dated 2018):
Where two headings read alike, the source gives them in different places.

How the values were obtained:
[1] = Solubility in cell medium; format: physicochemical; conditions: solution of ligand in DMSO (20 mM) diluted in cell media to 100 μM; scale from 'very poor' (almost insoluble) to 'very good' (freely soluble over extended periods at 4° C.)
[2] = system: HEp2 or BSC1 cells; test: Toxicity to cells in the TCID50 screen (mock control); format: cell-based
Method: This method provides a rapid approach to initially screen compounds and was developed as an increased number of compounds were synthesised. […] Virus was then added over 5 different half log dilutions starting at a multiplicity of infection of 0.02 plus mock control. Three dilutions of compound plus a DMSO control were screened per plate. […] Identical plate repeats for each compound dilution were fixed in subsequent days as indicated.

[3] = system: hRSV (strain A2); test: Plaque inhibition assay, hRSV; format: cell-based, human respiratory syncytial virus
Method: Example: Plaque inhibition assay
An identical assay procedure was carried out for hRSV (strain A2) bovine RS (strain Snook) and PVM (strain 15). Virus stocks were diluted 10 fold in GMEM (Invitrogen) so that the wells containing cells received sufficient virus to generate approximately 2000, 200 and 20 plaques per well.
The overlay medium also contained the compound to be tested at appropriate concentrations. Typically the 6 concentrations of the test compounds used were: 100 μM, 31.6 μM, 10 μM, 3.16 μM, 1 μM and 0.316 μM.
Stocks of the test compounds were prepared in DMSO (Sigma) (carrier). Each stock compound was diluted 1 in 200 in overlay medium to give dilutions stated above.
Cells of a standard cell line known to support pneumovirus replication (typically HEp2 or BSC1 cells) were grown in standard 12 well plates at 37° C. in an atmosphere of 5% (v/v) CO2 until confluent. Medium was aspirated from the cells and replaced with 200 μl aliquots of virus. Aliquots were prepared by diluting virus stocks 10-fold in GMEM (Invitrogen) as described above with no FCS. A mock (no virus) was also set up to test cell viability. The virus was incubated with the cells for 1 hour at 33° C. with gentle rocking every 5-10 minutes. The inocula were removed and 2 ml of overlay medium was added. Overlay medium was either test (plus compound) or control (medium alone or medium containing DMSO). The plates were incubated at 33° C. for 4-8 days to allow plaques to develop as indicated. A volume of 1 ml of additional overlay medium (containing the test compound as appropriate) was added every 3 days. All virus dilutions were carried out with each concentration of test compound, or treated as controls, and each was carried out in triplicate.
Following incubation, cells were fixed by addition of an equal volume of 4% (v/v) glutaraldehyde (Sigma) in PBS with further incubation for a minimum of 2 hours. The fixing solution was washed off under a slow flowing stream of water and 1 ml of crystal violet (0.075% w/v: Sigma) was added and left for 20 minutes at room temperature. The crystal violet was removed and the fixed cell monolayers washed. Plates were air dried. Plaques counts were recorded from wells with >20 and <200 in number. These numbers provide the most robust statistical reliability for viable plaque counts.
This experimental approach screens the ability of compounds to block the formation of plaques.

[4] = system: RSV; test: 96 well plate TCID50 (cellular RSV TCID50 assay); format: cell-based; conditions: summary of activities in cellular RSV TCID50 assay; symbols − to +++++ not defined
Method: This method provides a rapid approach to initially screen compounds and was developed as an increased number of compounds were synthesised. Cells of a standard cell line known to support pneumovirus replication (typically HEp2 or BSC1 cells) were grown to 95% confluence in a 96 well plate. Virus was then added over 5 different half log dilutions starting at a multiplicity of infection of 0.02 plus mock control. Three dilutions of compound plus a DMSO control were screened per plate. […] Identical plate repeats for each compound dilution were fixed in subsequent days as indicated.
Stained plates were read at 595 nm, higher optical density (OD) readings indicate more viable cells remain.

[5] = cellular RSV TCID50 assay tables

Structure (SMILES)	Solubility in cell medium [1]	Toxicity [2, 5]	also measured
CC(=O)c1cccc(NC(=O)Nc2ccccc2C)c1 [Compound 2, 1-(3-acetylphenyl)-3-(2-methylphenyl)urea]	good	very low	
Cc1ccccc1NC(=O)Nc1cccc(C#N)c1 [Compound 3, 3-(3-cyanophenyl)-1-(2-methylphenyl)urea]	good	low	Plaque size relative to DMSO control ([3]; hRSV plaque assay): much smaller; Plaque size ([3]; hRSV, HEp2 cells, 5 days, at 31.6 μM and to some extent 10 μM): very small; IC50 ([3]; human respiratory syncytial virus, HEp-2, 120 h, hRSV, HEp2 cells, Day 5, read-out: IC50 (plaque number vs DMSO control)): ~50 µM
Cc1ccccc1NC(=O)Nc1cccc([S+](C)[O-])c1 (stereo not drawn) [Compound 5, 3-(3-methanesulfinylphenyl)-1-(2-methylphenyl)urea]	good	very low	
N#Cc1cccc(NC(=O)Nc2cccnc2)c1 [Compound 7, 3-(3-cyanophenyl)-1-(pyridin-3-yl)urea]	moderate	low	
N#Cc1ccc(NC(=O)Nc2ccccn2)cc1 [Compound 8, 3-(4-cyanophenyl)-1-(pyridin-2-yl)urea]	moderate	toxic at 100, 32, 10 μM	
Cc1ccccc1NC(=O)Nc1ccccn1 [Compound 9, 1-(2-methylphenyl)-3-(pyridin-2-yl)urea]	good	low	
Cc1ccccc1NC(=O)Nc1cccnc1 [Compound 10, 1-(2-methylphenyl)-3-(pyridin-3-yl)urea]	moderate	low	
N#Cc1cccc(NC(=O)Nc2ccccn2)c1 [Compound 11, 3-(3-cyanophenyl)-1-(pyridin-2-yl)urea]	moderate	toxic at 100 μM	
N#Cc1cccc(NC(=O)Nc2ncccn2)c1 [Compound 12, 3-(3-cyanophenyl)-1-(pyrimidin-2-yl)urea]	poor	toxic at 100 μM	
COc1cccc(NC(=O)Nc2ccccc2C)c1 [Compound 13, 3-(3-methoxyphenyl)-1-(2-methylphenyl)urea]	good	toxic at 100 μM	
CSc1ccc(NC(=O)Nc2ccccc2C)cc1 [Compound 14, 3-(2-methylphenyl)-1-[4-(methylsulfanyl)phenyl]urea]	good	low	
COc1ccc(NC(=O)Nc2ccccc2C)cc1 [Compound 15, 1-(4-methoxyphenyl)-3-(2-methylphenyl)urea]	good	low	
Cc1ccccc1NC(=O)Nc1cccc(Br)c1 [Compound 16, 1-(3-bromophenyl)-3-(2-methylphenyl)urea]	moderate	toxic at 100 μM	
Cc1ccccc1NC(=S)Nc1cccc([N+](=O)[O-])c1 [Compound 17, 3-(2-methylphenyl)-1-(3-nitrophenyl)thiourea]	good	toxic at 100 μM	
Cc1ccccc1NC(=S)Nc1cccc(C#N)c1 [Compound 18, 1-(3-cyanophenyl)-3-(2-methylphenyl)thiourea]	very good	low	
CC1CCCCC1NC(=O)Nc1cccc([N+](=O)[O-])c1 (stereo not drawn) [Compound 21, 3-(2-methylcyclohexyl)-1-(3-nitrophenyl)urea]	moderate	toxic at 100 μM	
CC1CCCCC1NC(=O)Nc1ccc(C#N)cc1 (stereo not drawn) [Compound 22, 1-(4-cyanophenyl)-3-(2-methylcyclohexyl)urea]	moderate	low	

Structure (SMILES)	Solubility in cell medium [1]	Toxicity [2, 5]	also measured
CC1CCCCC1NC(=O)Nc1cccc(C#N)c1 (stereo not drawn) [Compound 23, 1-(3-cyanophenyl)-3-(2-methylcyclohexyl)urea]	moderate	low	
CCCCCCCCNC(=O)Nc1ccc(C#N)cc1 [Compound 24, 1-(4-cyanophenyl)-3-octylurea]	good	low	
CCCCCCCCNC(=O)Nc1ccccc1C [Compound 25, 1-(2-methylphenyl)-3-octylurea]	moderate	low	
Cc1ccccc1NC(=O)NCCN(C)C [Compound 26, 3-[2-(dimethylamino)ethyl]1-(2-methylphenyl)urea]	good	low	
Cc1ccccc1NC(=O)N1CCOCC1 [Compound 27, N-(2-methylphenyl)morpholine-4-carboxamide]	good	low	
CCCCCCCCNC(=S)Nc1ccccc1C [Compound 28, 1-(2-methylphenyl)-3-octylthiourea]	good	low	
Cc1ccccc1NC(=S)NCCN(C)C [Compound 29, 3-[2-(dimethylamino)ethyl]-1-(2-methylphenyl)thiourea]	good	low	
Cc1ccccc1NC(=S)N1CCOCC1 [Compound 30, N-(2-methylphenyl)morpholine-4-carbothioamide]	very good	low	
O=C(Nc1cccc(NC(=O)Nc2cccc([N+](=O)[O-])c2)c1)Nc1cccc([N+](=O)[O-])c1 [Compound 31, 1,1′-(1,3-phenylene)bis(3-(3-nitrophenyl)urea)]	very poor		Toxicity [2]: toxic at 100 μM
CSc1cccc(NC(=O)Nc2cccc(NC(=O)Nc3cccc(SC)c3)c2)c1 [Compound 33, 1,1′-(1,3-phenylene)bis(3-(3-(methylthio)phenyl)urea)]	poor	toxic at 100 μM	
COc1cccc(NC(=O)Nc2cccc(NC(=O)Nc3cccc(OC)c3)c2)c1 [Compound 34, 1,1′-(1,3-phenylene)bis(3-(3-methoxyphenyl)urea)]	poor	toxic at 100 μM	
Cc1ccccc1NC(=O)NCCCOCCOCCOCCCNC(=O)Nc1ccccc1C [Compound 38, 1-(2-methylphenyl)-3-(3-{2-[2-(3-{[(2-methylphenyl)carbamoyl]-amino}propoxy)ethoxy]ethoxy}propyl)urea]	good	toxic at 50 μM	
Cc1ccccc1NC(=O)Nc1ccc(Br)cc1 [Compound 41, 1-(4-bromophenyl)-3-(o-tolyl)urea]	Moderate at 100 μM	Low	
Cc1ccccc1NC(=O)Nc1ccc(SC(F)(F)F)cc1 [Compound 42, 1-(o-tolyl)-3-(4-((trifluoromethyl)thio)phenyl)urea]	Good	Very toxic at 100 μM	Activity [4]: Plaques reduced
Cc1ccccc1NC(=O)Nc1ccc(OC(F)(F)F)cc1 [Compound 43, 1-(o-tolyl)-3-(4-(trifluoromethoxy)phenyl)urea]	Good	Toxic at 100 μM	Activity [4]: Plaques reduced
Cc1ccccc1NC(=O)Nc1ccc(I)cc1 [Compound 44, 1-(4-iodophenyl)-3-(o-tolyl)urea]	Moderate at 100 μM	Low	Activity [4]: Inactive
COc1ccc(NC(=O)Nc2ccccc2C)cc1OC [Compound 45, 1-(3,4-dimethoxyphenyl)-3-(o-tolyl)urea]	Good	Low	Activity [4]: Inactive
